Measurements from US20170275706A1, “ALK AND ROS KINASE IN CANCER” (priority 2010, published 2017).

Experiments:
[1] = test system: BaF3 expressing FIG-ROS(L); experiment: MTS cell growth assay, BaF3 cells expressing FIG-ROS(L); type: cell-based; conditions: FIG. 6; 0-1000 nM TAE-684, 72 hours
Procedure: (§1) BaF3 and Karpas 299 cells were obtained from DSMZ (Deutsche Sammlung von Mikroorganismen und Zellkulturen GmbH, Germany). BaF3 cells, which need interleukin-3 to survive, were maintained at 37° C. in RPMI-1640 medium (Invitrogen) with 10% fetal bovine serum (FBS) (Sigma) and 1.0 ng/ml murine IL-3 (R&D Systems). Karpas 299 cells (a lymphoma cell line) were grown in RPMI-1640 with 10% FBS.
(§2) BaF3 cells were transduced with retrovirus encoding FIG-ROS(S), FIG-ROS(L), or FLT-3ITD (the Internal tandem duplication mutation in FLT3 causes AML leukemia), and selected for IL3 independent growth. Karpas 299 cells, which express NPM-ALK, was used as a positive control. Retroviruses were generated as previously described (see PCT Publication No. WO 2010/093928, incorporated by reference).
(§3) A MTS assay was performed using the CellTiter 96 Aqueous One Solution Reagent (Promega, Catalog No G3582). […] After 72 hours, 20 μl of the CellTiter 96 Aqueous One Solution Reagent was added into each well of a 96 well assay plate (flat bottom), and then 100 μl of cells grown with or without treatment. Media-only wells were used as controls. The 96 well plate was incubated for 1-4 hours at 37° C., and then viable cells were counted by reading the absorbance at 490 nm using a 96 well plate reader.

[2] = test system: BaF3 expressing FIG-ROS(S); experiment: MTS cell growth assay, BaF3 cells expressing FIG-ROS(S); type: cell-based; conditions: FIG. 6; 0-1000 nM TAE-684, 72 hours
Procedure: as §1, §2, §3

[3] = test system: BaF3 expressing FLT3ITD; conditions: FIG. 6; 0-1000 nM TAE-684, 72 hours
Procedure: as §1, §2, §3

[4] = test system: Karpas 299 cells; conditions: FIG. 6; 0-1000 nM TAE-684, 72 hours
Procedure: as §1, §2, §3

[5] = test system: BaF3 cells expressing FIG-ROS(S); experiment: Cleaved caspase-3 flow cytometry apoptosis assay, BaF3 FIG-ROS(S); type: cell-based; conditions: FIG. 7; presence of TAE-684
Description: (§4) The mechanism of death of the BaF3 and Karpas 299 cells was next assessed by measuring the percentage of cleaved-caspase 3 positive cells by flow cytometry assay using cleaved caspase-3 as a marker for apoptosis.

[6] = test system: BaF3 cells expressing FIG-ROS(L); experiment: Cleaved caspase-3 flow cytometry apoptosis assay, BaF3 FIG-ROS(L); type: cell-based; conditions: FIG. 7; presence of TAE-684
Description: as §4

[7] = test system: Karpas 299 cells; experiment: Cleaved caspase-3 flow cytometry apoptosis assay, Karpas 299; type: cell-based; conditions: FIG. 7; presence of TAE-684
Description: as §4

[8] = target: T1, FIG-ROS(S) (Homo sapiens, UniProt P08922); experiment: Western blotting, phosphorylation of FIG-ROS(S) in BaF3 cells; type: cell-based
T1 construct: expressed in transfected cells; host or cells: BaF3 cells, retroviral transduction
Description: (§5) All antibodies were from Cell Signaling Technology, Inc. (Danvers, Mass.)
(§6) Since ROS, ALK, LTK, InsR, and IGFIR belong to the same family of tyrosine kinases, they may share similar structure in the kinase domain.

[9] = target: FIG-ROS(L) (Homo sapiens, UniProt P08922); experiment: Western blotting, phosphorylation of FIG-ROS(L) in BaF3 cells; type: cell-based
Description: as §5, §6

[10] = test system: STAT3, AKT, ERK, Shp2; experiment: Western blotting, downstream signaling phosphorylation in FIG-ROS(S) and FIG-ROS(L) expressing BaF3 cells; type: cell-based
Description: as §5, §6

[11] = test system: STAT3, AKT, ERK, Shp2; experiment: Western blotting, downstream signaling phosphorylation in BaF3 cells transduced with FLT-3ITD; type: cell-based; conditions: BaF3 FLT-3ITD
Description: as §5, §6

[12] = test system: ERK, STAT3; experiment: Western blotting, ERK/STAT3 phosphorylation in Karpas 299 cells; type: cell-based
Description: as §5, §6

[13] = FIG. 8, 0, 10, 50, or 100 nM TAE-684 for three hours
[14] = FIG. 10, 0, 0.1, 0.3, or 1.0 uM crizotinib for three hours

| phosphorylation of FIG-ROS(S) [8, 13] | phosphorylation of FIG-ROS(L) [9, 13] | phosphorylation of FIG-ROS(S) [8, 14] | phosphorylation of FIG-ROS(L) [9, 14] | Compound | cellular growth response [1] | cellular growth response [2] | cellular growth response [3] | cellular growth response [4] | mechanism of death (cleaved-caspase 3 positive cells) [5] | mechanism of death (cleaved-caspase 3 positive cells) [6] | mechanism of death (cleaved-caspase 3 positive cells) [7] | phosphorylation of STAT3, AKT, and ERK, and Shp2 [10, 13] | phosphorylation of STAT3, AKT, and ERK, and Shp2 [11, 13] | ERK phosphorylation [12, 13] | phosphorylation of STAT3 and ERK [10, 14] | phosphorylation of STAT3 and ERK [11, 14] | STAT3 and ERK phosphorylation [12, 14] |
| --- | --- | --- | --- | --- | --- | --- | --- | --- | --- | --- | --- | --- | --- | --- | --- | --- | --- |
| inhibited | inhibited |  |  | COc1cc(N2CCC(N3CCN(C)CC3)CC2)ccc1Nc1ncc(Cl)c(Nc2ccccc2S(=O)(=O)C(C)C)n1 [TAE-684] | stopped growing | stopped growing | not susceptible | stopped growing | die by apoptosis | die by apoptosis | did not die by apoptosis | inhibited | not affected | inhibited |  |  |  |
|  |  | inhibited | inhibited | C[C@@H](Oc1cc(-c2cnn(C3CCNCC3)c2)cnc1N)c1c(Cl)ccc(F)c1Cl [crizotinib] |  |  |  |  |  |  |  |  |  |  | inhibited | not affected | inhibited |
